Data from patent publication US20130053438A1, “PHARMACEUTICAL COMPOSITIONS COMPRISING LIGNANS AND THEIR DERIVATIVES FOR THE MEDICAL MANAGEMENT OF ANGIOGENESIS AND HYPOVASCULARITY” (Universitat Innsbruck, priority 2010, published 2013).
Several values for one entry are separate records, joined by “and”; a condition that tells them apart may be missing. Equal entries are not always repeated.

Assays:
[1] = tested on: human microvascular endothelial cells; experiment: capillary (endothelial tube) formation on matrigel substrate; type: cell-based; conditions: within 6 hrs of incubation, quantified by imaging software
Description: (§1) In particular 5-methoxy-leoligin has been shown and exemplified in the appended examples as a potent activator of angiogenesis. […] Furthermore, the pro-angiogenic activity of 5-methoxy-leoligin has been tested in vivo in the chorioallantois membrane (CAM) assay of chicken embryos. […] These assays are recognized in the art to represent functional assays for in vitro and in vivo angiogenesis; see Methods in Endothelial cell biology, H G Augustin Ed.; 2004, Springer Lab Manual, ISBN 3-540-21397-X, Springer —Verlag Berlin, Heidelberg, N.Y..
Cells form tube-like structures between each other within 6 hrs of incubation. Those were quantified by an imaging software.

endothelial cells = experiment: wound scratch healing assay; type: cell-based; conditions: 1 and 10 μM, 9 hours
Procedure: The upper two images show the migration of endothelial cells into scratch area without treatment (left side) an in the presence of Lag2 (right side). The two images at the bottom are the control images of the scratch size at 0 hours.

[2] = tested on: chorioallantois membrane (CAM) of chicken embryos; experiment: chicken chorioallantoic membrane (CAM) assay; type: in vivo; conditions: chicken embryo CAM, each group 5 eggs, p<0.05
Description: as §1
Each group consists of 5 eggs.

HUVECs = experiment: angiogenic sprouting in a 3-D Collagen matrix (spheroid sprouting assay); type: cell-based; conditions: after 24 h of stimulation
Description: as §1
These sprouts were analyzed after 24 h of stimulation and “cumulative sprout length” (CSL) of each sprout was quantified in μm.

[3] = tested on: small muscle cells and endothelial cells; conditions: prior art, Reisinger et al. (2009); cited from earlier work
[4] = tested on: wound closure in pigs (Deutsches Landschwein); experiment: porcine model for time of wound closure, topical administration; type: in vivo, pig
Procedure: FIG. 9. […] N for control and Leoligin treated wounds is 5. […] Data assessment was conducted in a blinded manner.
For the large animal model 30-35 kg pigs (Deutsches Landschwein) was used. Animals were supplied by, kept, and experiments were performed at the Central Animal Testing Facility of the University of Innsbruck and the “Besondere Einrichtung für Biomedizinische Forschung” of the Medical University of Vienna. Pigs received a standard growth diet.
One hour prior to anaesthesia pigs received an intramuscular injection of 4 mg/kg Azaperon and 0.1 mg/kg Atropin. Full anaesthesia was achieved by intravenously applied 2-3 mg/kg Propofol and 15 mg Piritramid, followed by intubation of animals and ventilation with 30% O2. Muscle relaxation was achieved by an initial does of 8 mg Pancuronium and repetition with 0.2 mg/kg/h Pancuronium. Maintenance of anaesthesia was achieved by continuous infusion with 8-12 mg/kg/h Propofol and 15 mg Piritramid.
In the course of an experimental bypass surgery in the pig, after re-implantation of the graft (into the carotis artery) Leoligin (“Leo”) or NaCl control solution was added into the wound topically (the situs was filled with control solution (0.9% NaCl) or a solution containing leoligin at 100 μM. By optical inspection every 24 hours of blinded researchers the time to wound closure/healing was documented. Animals with infected wounds were excluded from the analysis.

venous bypass grafts = conditions: prior art, Reisinger (2009); cited from earlier work

| SMILES | capillary formation (tube-like structures) [1] | capillary formation (tube-like structures) ([1]; listed as LaG2) | migration of endothelial cells into scratch area / wound healing (endothelial cells) | vascular density / blood vessel formation [2] | vascular density / blood vessel formation ([2]; listed as LaG2) | number and length of angiogenic sprouts (cumulative sprout length) (HUVECs) | number and length of angiogenic sprouts (cumulative sprout length) (HUVECs; listed as LaG2) | induction of cell death [3] | wound healing (in words) ([4]; leoligin 100 μM topical) | time until wound closure after surgery, mean value ([4]; leoligin 100 μM topical, N = 5) [days] | time until wound closure after surgery, individual wounds ([4]; situs filled with solution containing leoligin at 100 μM, topical, inspection every 24 hours, blinded, listed as Leo) | effect on intimal hyperplasia of venous bypass grafts (venous bypass grafts) |
| --- | --- | --- | --- | --- | --- | --- | --- | --- | --- | --- | --- | --- |
| C/C=C(/C)C(=O)OC[C@H]1[C@@H](Cc2ccc(OC)c(OC)c2)CO[C@@H]1c1cc(OC)c(OC)c(OC)c1 [5-methoxy-leoligin, [(2S,3R,4R)-4-(3,4-dimethoxybenzyl)-2-(3,4,5-trimethoxyphenyl)tetrahydrofuran-3-yl]methyl-(2Z)-2-methylbut-2-enoat] | significant increase in capillary formation | dose-depentently supported capillary formation | promotes the migration of endothelial cells into damaged tissue and stimulates wound healing | significantly increased the vascular density | dose-dependently supported embryonic blood vessel formation | significantly enhanced both the length and number of angiogenic sprouts | significant increase of sprout number and lengths |  |  |  |  |  |
| C/C=C(/C)C(=O)OC[C@H]1[C@@H](Cc2ccc(OC)c(OC)c2)CO[C@@H]1c1ccc(OC)c(OC)c1 [leoligin, [(2S,3R,4R)-4-(3,4-dimethoxybenzyl)-2-(3,4-dimethoxyphenyl)tetrahydrofuran-3-yl]methyl (2Z)-2-methylbut-2-enoat] |  |  |  |  |  |  |  | did not induce cell death | can successfully be used to promote wound healing | 19.4 | 19 days and 20 days and 16 days and 21 days (2×) | inhibits intimal hyperplasia of venous bypass grafts |
